Data taken from article PMC8597046, “Use of Mixture Dosing and Nonlinear Mixed Effect Modeling of Eight Environmental Contaminants in Rabbits to Improve Extrapolation Value of Toxicokinetic Data” (Environmental Health Perspectives, 2021).

Columns and labels:
in vivo [1] = details: female, rabbit, in vivo, iv; for AUC(0-inf) / Cmax / MRT / clearance / half-life / Vd: New Zealand white (INRA 1777 line); for Serum concentration / concentration at 0.6 h / concentration at 0.67 h / concentration at 0.77 h / concentration at 24 h / concentration at 24.03 h / concentration at 71.97 h / concentration at 72 h / concentration at 72.03 h / concentration at 167.92 h / concentration at 168 h / concentration at 671.83 h / concentration at 671.96 h / concentration at 672 h: New Zealand white; for concentration at 0.6 h / concentration at 0.67 h / concentration at 0.77 h / concentration at 24 h / concentration at 24.03 h / concentration at 71.97 h / concentration at 72 h / concentration at 72.03 h / concentration at 167.92 h / concentration at 168 h / concentration at 671.83 h / concentration at 671.96 h / concentration at 672 h: Serum concentration
Method in brief: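 Female New Zealand white rabbits received a compound mixture IV via ear-vein catheter; serum sampled sparsely (3 rabbits/time point) from 15 min to 28 d. Noncompartmental sparse-data analysis on mean profiles: linear-trapezoidal AUC, CL as dose/AUC0−inf, half-life from λZ, MRT and VSS.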

in vivo [2] = details: female, New Zealand white (INRA 1777 line), rabbit, in vivo, po
Method in brief: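 Female New Zealand white rabbits (INRA 1777 line, 2 wk old, n=16 treated, 16 vehicle controls) received an oral eight-compound mixture: loading plus maintenance dose, then daily maintenance dose for 17 wk. Dosing volume 1mL/kg adjusted weekly to predicted BW; serum obtained after clotting and centrifugation, stored at −20°C.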

in vivo [3] = details: female, rabbit, in vivo, po; for concentration at 0.57 h / concentration at 23.98 h / concentration at 24 h / concentration at 168 h / concentration at 671.96 h / concentration at 672.02 h / concentration at 71.96 h / concentration at 72 h / concentration at 168.02 h / concentration at 0.55 h: Serum concentration
Method in brief: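 Female New Zealand white rabbits (10-wk, 2.37±0.14kg) got the compound mixture IV via ear-vein catheter or orally into the mouth; serum sampled 15 min to 28 d, 3 (or 6 at 30 min) rabbits per time. Sparse-data noncompartmental analysis gave AUC (linear trapezoidal), CL or CL_F, half-life and F.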

[4] = New Zealand white (INRA 1777 line)

## ClC(Cl)=C(c1ccc(Cl)cc1)c1ccc(Cl)cc1 [pp′DDE, 1,1-Dichloro-2,2-bis(p-chlorophenyl)ethylene]
In vivo [1]
  AUC(0-inf): 19.8 µM·h
  Cmax: 0.9 µM
  MRT: 8.46 days
  clearance: 0.11 L/h/kg
  half-life: 9.92 days
  concentration at 0.6 h: 0.6 µM
  concentration at 0.67 h: 0.9 µM
  concentration at 0.77 h: 0.64 µM
  concentration at 24 h: 0.065 µM
  concentration at 24.03 h: 0.047 µM
  concentration at 71.97 h: 0.027 µM
  concentration at 72 h: 0.026 µM
  concentration at 72.03 h: 0.027 µM
  concentration at 167.92 h: 0.011 µM
  concentration at 168 h: 0.019 µM
  concentration at 671.83 h: 0.0037 µM
  concentration at 671.96 h: 0.0028 µM
  concentration at 672 h: 0.0068 µM
In vivo [1]; VSS
  Vd: 23.2 L/kg
In vivo [1]; VZ
  Vd: 39.2 L/kg
In vivo [1]; 24 h
  Serum concentration: 0.060 µM
In vivo [1]; 168 h
  Serum concentration: 0.015 µM
In vivo [2]
  concentration at 17 wk: 0.025 ± 0.012 µg/mL
In vivo [3]; [4]
  AUC(0-inf): 78.6 µM·h
  CL/F: 0.18 L/h/kg
  Cmax: 0.58 µM
  MRT: 12.8 days
  Tmax: 1 days
  Vd/F: 68.8 L/kg
  bioavailability: 62%
  half-life: 10.8 days
  concentration at 0.57 h: 0.016 µM
  concentration at 23.98 h: 0.25 µM
  concentration at 24 h: 0.72 µM
  concentration at 168 h: 0.11 µM
  concentration at 671.96 h: 0.024 µM
  concentration at 672.02 h: 0.031 µM
In vivo [3]; New Zealand white (INRA 1777 line), 24 h
  Serum concentration: 0.43 µM
In vivo [3]; New Zealand white (INRA 1777 line), 672.02 h
  Serum concentration: 0.040 µM
In vivo [3]; New Zealand white, 72 h
  Serum concentration: 0.20 µM
In vivo [3]; New Zealand white
  concentration at 71.96 h: 0.25 µM
  concentration at 72 h: 0.14 µM
  concentration at 168 h: 0.11 µM
  concentration at 168.02 h: 0.091 µM

## Cl[C@H]1[C@H](Cl)[C@@H](Cl)[C@H](Cl)[C@@H](Cl)[C@@H]1Cl [β-HCH, β-hexachlorocyclohexane]
In vivo [1]
  AUC(0-inf): 26.7 µM·h
  Cmax: 0.32 µM
  MRT: 22.6 days
  clearance: 0.057 L/h/kg
  half-life: 13.8 days
In vivo [1]; VSS, IV mixture dosing, NCA, n=12
  Vd: 30.9 L/kg
In vivo [1]; VZ, IV mixture dosing, NCA, n=12
  Vd: 27.1 L/kg
In vivo [1]; rabbit 1, 24.03 h
  concentration at 24.03 h: 0.062 µM
In vivo [1]; rabbit 2, […]
  concentration at 24 h: 0.05 µM
In vivo [1]; rabbit 3, […]
  concentration at 24 h: 0.076 µM
In vivo [1]; rabbit 4, 72.00 h
  concentration at 72 h: 0.036 µM
In vivo [1]; rabbit 5, 72.03 h
  concentration at 72.03 h: 0.034 µM
In vivo [1]; rabbit 6, 71.97 h
  concentration at 71.97 h: 0.029 µM
In vivo [1]; rabbit 7, 168.00 h
  concentration at 168 h: 0.02 µM
In vivo [1]; rabbit 8, 167.92 h
  concentration at 167.92 h: 0.018 µM
In vivo [1]; rabbit 9, 168.00 h
  concentration at 168 h: 0.025 µM
In vivo [1]; rabbit 10, 0.67 h
  concentration at 0.67 h: 0.32 µM
In vivo [1]; rabbit 10, 671.96 h
  concentration at 671.96 h: 0.0065 µM
In vivo [1]; rabbit 11, 0.77 h
  concentration at 0.77 h: 0.25 µM
In vivo [1]; rabbit 11, 672.00 h
  concentration at 672 h: 0.021 µM
In vivo [1]; rabbit 12, 0.60 h
  concentration at 0.6 h: 0.27 µM
In vivo [1]; rabbit 12, 671.83 h
  concentration at 671.83 h: 0.0096 µM
In vivo [2]
  concentration at 17 wk: 0.0043 ± 0.0016 µg/mL
In vivo [3]; [4]
  AUC(0-inf): 67.1 µM·h
  CL/F: 0.104 L/h/kg
  Cmax: 0.297 µM
  MRT: 15.4 days
  Tmax: 1 days
  Vd/F: 47 L/kg
  bioavailability: 55%
  half-life: 13.1 days
In vivo [3]; New Zealand white (INRA 1777 line), oral, rabbit 13, […], MEHP after oral DEHP
  concentration at 24 h: 0.39 µM
In vivo [3]; New Zealand white (INRA 1777 line), oral, rabbit 14, […], MEHP after oral DEHP
  concentration at 24 h: 0.2 µM
In vivo [3]; New Zealand white (INRA 1777 line), oral, rabbit 15, 23.98 h, MEHP after oral DEHP
  concentration at 23.98 h: 0.19 µM
In vivo [3]; New Zealand white (INRA 1777 line), rabbit 21, 168.00 h
  concentration at 168 h: 0.099 µM
In vivo [3]; New Zealand white (INRA 1777 line), rabbit 22, 0.57 h
  concentration at 0.57 h: 0.029 µM
In vivo [3]; New Zealand white (INRA 1777 line), rabbit 22, 672.02 h
  concentration at 672.02 h: 0.013 µM
In vivo [3]; New Zealand white (INRA 1777 line), rabbit 23, 0.55 h
  concentration at 0.55 h: 0.073 µM
In vivo [3]; New Zealand white (INRA 1777 line), rabbit 23, 671.96 h
  concentration at 671.96 h: 0.03 µM
In vivo [3]; New Zealand white (INRA 1777 line), rabbit 24, 0.55 h
  concentration at 0.55 h: 0.25 µM
In vivo [3]; New Zealand white (INRA 1777 line), rabbit 24, 672.02 h
  concentration at 672.02 h: 0.043 µM
In vivo [3]; New Zealand white, oral, rabbit 16, 72.00 h, MEHP after oral DEHP
  concentration at 72 h: 0.094 µM
In vivo [3]; New Zealand white, oral, rabbit 17, 72.00 h, MEHP after oral DEHP
  concentration at 72 h: 0.16 µM
In vivo [3]; New Zealand white, oral, rabbit 18, 71.96 h, MEHP after oral DEHP
  concentration at 71.96 h: 0.18 µM
In vivo [3]; New Zealand white, rabbit 19, 168.02 h
  concentration at 168.02 h: 0.088 µM
In vivo [3]; New Zealand white, rabbit 20, 168.00 h
  concentration at 168 h: 0.089 µM
